Assay results taken from patent US20220390458A1, “FLUORESCENT PROBE AND APPLICATIONS THEREOF” (CENTRE NATIONAL DE LA RECHERCHE SCIENTIFIQUE (CNRS), priority 2019, published 2022).

Tests used:
[1] = Probe fluorescence in organic solvents of increasing polarity; type: physicochemical; conditions: 25° C., 2.6 μM probes
Procedure: Fluorescence measurements were performed with a Hitachi F4500 fluorometer. Excitation and emission slits were fixed at 5 nm and spectra were recorded at 25° C. using a 1 cm path length thermostated quartz micro-cuvette. 0.26 mM solutions of the probes were prepared in a dichloromethane: methanol mixture (3:1 volume ratio). Measurements were performed with […] probes diluted in the different solvents (see Table 1). The initial solvent of the stock solution thus represents 1% of the final volume.

[2] = carboxylic group; cited from earlier work
[3] = literature; cited from earlier work
[4] = Probe fluorescence in DMPC liposomes as a function of temperature (5 to 65° C.); type: physicochemical; conditions: for maximum emission wavelength, liquid crystalline phase: above phase transition temperature; for maximum emission wavelength, liquid crystalline phase / maximum emission wavelength, gel phase: excitation 385 nm; for maximum emission wavelength, gel phase: below phase transition temperature
Procedure: Liposomes were prepared in PBS buffer using a classical freeze/though protocol. In brief, lipids dissolved in chloroform were dried under vacuum. The lipid film formed was rehydrated with the PBS solution and agitated until the complete suspension of the lipid film. The vesicle solution was then submitted to 6 freeze/thaw (5 min in liquid nitrogen/10 min in 37° C. water bath) cycles and then extruded 19 times sequentially trough 400 nm and 200 nm polycarbonate membranes (Avanti Polar Lipids Liposome Extruder). The 200 nm liposome suspension was stored at 4° C.
Fluorescence data was obtained using a Hitachi F4500 fluorometer. Emission spectra were recorded between 420 and 600 nm with an excitation wavelength fixed at 385 nm and 5 nm excitation and emission slits. Ethanol solutions of fluorescent probes were prepared and added to liposomes at a 1:400 (probe: phospholipid) molar ratio. Liposomes were used at a 40 μg.mL^−1 final concentration. Measurements were done at 21° C. for all liposome compositions indicated in Table 2, except for DMPC where a range of temperature from 5 to 65° C. was also applied.
The spectral shift described above was quantified by calculation of the Generalized Polarization (GP) parameter. This parameter provides a quantitative index of membrane fluidity and is calculated as the difference between fluorescence emission intensity at a 440 nm (lipids with gel properties) and the intensity at 490 nm (wavelength evidenced in lipids with liquid crystal properties), divided by the sum of these two intensities. The GP parameter was thus calculated from fluorescence emission intensities according to the following formula: […]
where Igel and Ilc are, respectively, intensities of fluorescence at wavelengths characteristic of probe emission, respectively in gel and liquid crystal lipid phases.

[5] = Probe fluorescence intensity in POPC liposomes; type: physicochemical; conditions: 25° C., final concentration 0.2 μM
[6] = DIOLL probe fluorescence-based liposome quantification; conditions: POPC liposomes; 21° C.; excitation 390 nm
Procedure: A POPC solution of known concentration (100 μg.ml^−1) was used as standard. Increasing volumes of the standard solution were diluted with buffer in a 96 well plate (Nunc). The final volume per well was 200 μl and lipid concentrations between 0 and 80 μg.ml^−1 were used. Samples were prepared in parallel to a final volume of 200 μl per well.
A constant volume of DIOLL solution in ethanol (5 μl) was added in each well to obtain a final DIOLL concentration of 2 μM. The volume of ethanol added represented 2.5% of the final volume and had no effect on liposome integrity. The plate was incubated at room temperature for 10 min. Fluorescence emission spectra were recorded between 420 nm and 600 nm for an excitation wavelength of 390 nm with a TECAN InfiniteM200 plate reader. Spectra were recorded at 21° C.
The surface under the spectrum was calculated for each condition using an Excel complementary function, IntegralP (www.fordom.free.fr) which allows one to calculate the integral of a function when discrete data sets are available. Maximum fluorescence intensities or surfaces under the curve were plotted as a function of the lipid concentration to obtain the standard curve. […]
To conclude upon the repeatability of the method, the coefficient of variation (CV) was calculated as the percentage of the standard deviation on the mean of 5 independent measurements. […]

[7] = DIOLL fluorescence in DMPC liposomes (plate reader, quantification method); type: physicochemical; conditions: 21° C., excitation 390 nm
Procedure: (§1) Liposomes were prepared using a classical freeze/thaw protocol. Briefly, the appropriate lipid mixture solubilized in chloroform was dried under vacuum, then solubilized with 1 ml buffer under strong agitation. Assays were done either in HEPES 20 mM pH 7.4 buffer 100 mM NaCl or in PBS. The liposome emulsion obtained was submitted to 6 freeze/thaw cycles (5 min in liquid nitrogen/10 min in a water bath at 37° C., 1 minute strong agitation) to decrease the number of bilayers and obtain unilamellar vesicles. To obtain homogenous vesicles, the liposome solution was extruded successively through a 400 nm and 100 nm polycarbonate membrane using an extruder (Avanti Polar Lipids). Liposomes were routinely prepared at lipid concentrations between 1 and 10 mg.ml^−1 and subsequently diluted at the desired concentration. A constant volume of DIOLL solution in ethanol (5 μl) was added in each well to obtain a final DIOLL concentration of 2 μM. The volume of ethanol added represented 2.5% of the final volume and had no effect on liposome integrity. The plate was incubated at room temperature for 10 min. Fluorescence emission spectra were recorded between 420 nm and 600 nm for an excitation wavelength of 390 nm with a TECAN InfiniteM200 plate reader. Spectra were recorded at 21° C.

[8] = DIOLL fluorescence in DPPC liposomes (plate reader, quantification method); type: physicochemical; conditions: 21° C., excitation 390 nm
Procedure: as §1

[9] = Determination of nanoemulsion (NE) fluidity with DIOLL probe; type: physicochemical
[10] = system: influenza virus membranes; experiment: Labeling of viral membranes and GP calculation; conditions: 21° C.; excitation 390 nm
[11] = cited from earlier work

SMILES	Maximum fluorescence intensity ([1]; Chloroform) [A. U.]	λ emission maximum ([1]; Chloroform) [nm]	Maximum fluorescence intensity ([1]; DMSO) [A. U.]	λ emission maximum ([1]; DMSO) [nm]	Maximum fluorescence intensity ([1]; Ethanol) [A. U.]	λ emission maximum ([1]; Ethanol) [nm]	Maximum fluorescence intensity ([1]; Toluene) [A. U.]	λ emission maximum ([1]; Toluene) [nm]	emission maximum, gel phase membranes [3] [nm]	emission maximum, liquid crystalline phase membranes [3] [nm]	gel over liquid crystalline ratio of fluorescence intensity [4]	inflexion point of first derivative of GP vs temperature [4] [°C]	maximum emission wavelength, liquid crystalline phase [4]	maximum emission wavelength, gel phase [4] [nm]	further results
CCCCCCCCCCCC(=O)c1ccc2cc(N(C)CC(=O)O)ccc2c1 [C-Laurdan, 6-Dodecanoyl-2-[N-methyl-N-(carboxymethyl)amino] naphthalene]	3115	432	2428	450	1491	485	359	416							pKa [2]: 6.6
CCCCN(CCCC)c1ccc2cc(/C=C/c3cc[n+](CC(O)C[N+](C)(C)CCO)cc3)ccc2c1.[Br-].[Br-] (stereo not shown) [Di-4-ANEPPDHQ]									560	610					
CCCCCCCCCCCC(=O)c1ccc2cc(N(C)CC(O)CO)ccc2c1 (stereo not shown) [DIOLL, 1-(6-((2,3-dihydroxypropyl)(methyl)amino)naphthalen-2-yl)dodecan-1-one]	5041	424	9384	441	7647	486	5041	424			0.8	23	490 nm	440	λ emission maximum ([1]; Chloroform, listed as DIOLL probe): 441 nm; λ emission maximum ([1]; DMSO, listed as DIOLL probe): 460 nm; λ emission maximum ([1]; Toluene, listed as DIOLL probe): 425 nm; fluorescence intensity, fold higher than that of Laurdan and C-Laurdan [5]: 7 fold; fluorescence intensity emission maximum [6]: 490 nm; maximum fluorescence emission [7]: 440 nm; maximum fluorescence emission [8]: 440 nm; fluorescence emission peak dissolved in MCT ([9]; 2.6 μM in MCT, single peak): 440 nm; fluorescence emission dissolved in water ([9]; 2.6 μM in water): no fluorescence emission was detected; maximum fluorescence intensity wavelength [10]: 440 nm
CCCCCCCCCCCC(=O)c1ccc2cc(N(C)C)ccc2c1 [Laurdan, 6-dodecanoyl-2-dimethylaminonaphthalene]	4441	440	5533	460	4221	485	3814	423	440	490	0.6	23	around 490 nm	440	fluorescence emission peak when incubated with NE solution ([9]; single peak): 440 nm; solubility in aqueous buffers [11]: low solubility in aqueous buffers
